The results in this text go back to patent publication US11857601B2, “Pharmaceutical composition for cancer treatment comprising fusion protein including IL-2 protein and CD80 protein and anticancer drug” (GI INNOVATION, INC., priority 2020, dated 2024).

The target of one assay is T1, Human CTLA-4 (Homo sapiens, UniProt P16410).
T1 construct: purchased Sino Biological 11159-H08H
As to the kind of experiment: Binding ability to CTLA-4 (Octet RED 384). As for the experimental part: In order to identify the binding affinity between the fusion protein and its ligand, the binding affinity was measured using Octet RED 384.
AR2G biosensor (Amine Reactive 2nd gen, ForteBio, Cat: 18-5092) was previously hydrated with 200 μl of distilled water in a 96-well microplate (GreinerBio-one, Cat: 655209). A ligand (CTLA-4, Human CTLA-4/CD152, His tag, Sino Biological, Cat: 11159-H08H) to be attached to the AR2G biosensor was diluted with 10 mM acetate buffer (pH 5, AR2G reagent Kit, ForteBio, Cat: 18-5095) to a concentration of 5 μg/ml. […] Activation buffer was prepared by mixing 20 mM EDC and 10 mM s-NHS (AR2G reagent Kit, ForteBio, Cat: 18-5095) in distilled water. 80 μl of each reagent was placed in a 384-well microplate (GreinerBio-one, Cat: 781209) and the program was set up.
Binding kinetics measurements were performed using the Octet RED 384 instrument (ForteBio, Pall Life Science) with agitation at 30° C. and 1,000 rpm. The binding ability for CTLA-4 was measured using the Amine Reactive 2 generation (AR2G) biosensor chip, and the binding ability for PD-L1 was measured using the Nickel charged Tris-NTA (Ni-NTA) biosensor chip. The AR2G biosensor chip was activated with a combination of 400 mM EDC and 100 mM sulfo-NHS. […]
In general terms: In BLI a coated tip is dipped into the sample, and binding shifts an interference pattern.

Another assay concerns LL/2 cell line. The assay is described as follows: mGI-101 and Axitinib in LL/2 allotransplanted tumor model. Type of assay: in vivo, C57BL/6 mice. The settings on record: mGI-101 3 mg/kg IP, Axitinib 30 mg/kg PO.
For another assay, the system named is CT26 cells. As to the kind of experiment: mGI-101 and Lenvatinib in CT26 allotransplanted tumor model. The conditions noted are these: end of the experiment, 10 mice per group. Format: in vivo, BALB/c mice. As for the experimental part: CT26 cells were purchased from ATCC (USA) and cultured in RPMI1640 medium (Gibco) containing 10% FBS (Gibco) and 1% antibiotic/antifungal agent (Gibco). The cultured cells were harvested using trypsin (Gibco) and then suspended in PBS. In order to establish an allotransplanted tumor model, 1×10^6 CT26 cells were subcutaneously injected into the right flank of BALB/c female mice (7-week-old).
A certain period of time after the cell transplantation, the tumor volume was measured for animals with no abnormalities in the health condition of the animals, and the mice were assigned so that the average tumor volume of each group was less than 70-100 mm^3, each group including 10 mice.
In the case of Lenvatinib powder, the dose was calculated and weighed, and it was prepared to the dose concentration using a 0.5% methyl cellulose excipient. In order to minimize the loss of the test substance, the doses for 3 or 4 days were weighed, and prepared using the excipient on the day of administration and injected.
(§1) Clinical symptoms such as a disease and a behavioral change were observed once a day during the test period, and deceased animals were identified, and the mice were sacrificed when the tumor size reached a size of 4,000 mm^3.
The tumor volume before administration of each subject was set as the value measured at the time of grouping.
(§2) All statistical calculations were performed using Prism 8.0 (Graph Pad Software Inc, USA). The comparison of tumor volume measurements was made through two-way analysis of variance followed by Tukey's multiple comparison test. A p value of less than 0.05 was considered significant.

The test system of the next assay is EMT6 cells. As to the kind of experiment: mGI-101 and Paclitaxel in EMT6 allotransplanted tumor model. Format: in vivo, BALB/c mice. As for the experimental part: EMT6 cells were purchased from ATCC (USA) and cultured in Waymouth MB 751/1 medium (WELGENE) containing 10% FBS (Gibco) and 1% antibiotic/antifungal agent (Gibco). The cultured cells were harvested using trypsin (Gibco), and then a high-concentration cell suspension (2×10^6 cells/0.4 mL) for 10 mice was prepare with PBS and stored on ice until injected into mice. In order to establish an allotransplanted tumor model, the skin was incised slightly away from the 4th nipple position from the upper right of the ventral region of BALB/c female mice (7-week-old), and the location of mammary fat pad at the incised site was identified, and then EMT6 cell line prepared inside the mammary fat pad was injected at 2×10^5 cells/40 uL/head.
A certain period of time after cell inoculation of the tumor grafts of the mice, the tumor volume was measured for animals with no abnormalities in the health condition of the animals, and the subjects were selected so that the average of each group reached less than 70-100 mm^3, and the selected animals were assigned as evenly as possible based on tumor volume and body weight, each group including 10 animals. As shown in Table 24 and FIG. 106, the test groups were configured and the test substances were administered.
as §1
The tumor volume before administration of each subject was set as the value measured at the time of grouping, and the anti-tumor efficacy was evaluated as compared with the vehicle control.
as §2

T1 sequence (P16410 36-223): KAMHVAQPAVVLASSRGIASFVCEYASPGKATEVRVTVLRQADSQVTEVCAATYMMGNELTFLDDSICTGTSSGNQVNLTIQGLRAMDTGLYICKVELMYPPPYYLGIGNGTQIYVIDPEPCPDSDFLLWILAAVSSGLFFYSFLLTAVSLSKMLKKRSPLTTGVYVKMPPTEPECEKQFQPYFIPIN
Experimental for LL/2 cell line: Mouse-derived colorectal cancer cells, CT26 (Mus musculus, Colon adenocarcinoma), and mouse-derived lung cancer cells, LL/2 (Mus musculus, Lung adenocarcinoma), were purchased from ATCC (USA) and used for the test. The cells to be used for the test were thawed, mixed with RPMI1640 (A1049101, Thermofisher scientific) medium containing 10% FBS (fetal bovine serum, Gibco, 10082-147), and then placed in a cell culture flask, and cultured in a 37° C., 5% CO2 incubator. The cells were washed with PBS, and then the cells were isolated using Trypsin-EDTA (15090, Gibco), and centrifugation (125×g, 5 minutes) was performed to discard the supernatant, and then the cells were suspended in a new medium to obtain the cell suspension. The viability of the cells was identified, and then a cell line was prepared by diluting in a medium to a concentration of 5.0×10^6 cells/mL.
6-week-old male BALB/cAnHsd mice or C57BL/6NHsd mice were purchased and used for the test. After the end of the acclimation period of 7 days, the cells were transplanted into healthy animals. The cell suspension (5×10^6 cells/mL) was dispensed, and filled into a disposable syringe, and transplantation of the suspension was performed by subcutaneous administration at 0.1 mL/head in the right dorsal region of the animals. General symptoms were observed once a day during the engraftment and growth period after cell line transplantation.
After the inoculation of the cell line was performed, when the tumor size at the site to which the cell line was transplanted reached about 50 mm^3, the tumor size of each group was distributed as uniformly as possible according to the ranked tumor size.
The test substance was administered orally or intraperitoneally, and administered for 3 weeks depending on the composition of the test group. In the case of oral administration, the animals were fixed with the cervical spine skin fixation method, and administered directly into the stomach using a sonde for oral administration. In the case of intraperitoneal administration, the animals were fixed with the cervical spine skin fixation method, and administered intraperitoneally using a syringe equipped with a 26 gauge needle. The administration rate was not to exceed 200 μl/min.
Syngeneic model was prepared by subcutaneously transplanting the LL/2 cell line into C57BL/6 mice, and then the test substance was administered to evaluate the anticancer effect.

As for “GI101: fusion protein: human CD80 fragment, Ig hinge, Fc domain, linker, IL-2 variant (2M) (R38A, F42A); SEQ ID NO: 9”, in the assay with Human CTLA-4, the “binding ability for CTLA-4” value was “high binding ability”.
For “mGI101: fusion protein: mouse CD80, Ig hinge, Fc domain, linker, IL-2 variant (2M) (R38A, F42A); SEQ ID NO: 15”, the Tumor size with LL/2 cell line (Day 0, mean ± SD) worked out at 55.70 ± 11.48 mm^3; with LL/2 cell line (Day 2, mean ± SD), 99.18 ± 19.96 mm^3; in the assay on LL/2 cell line (Day 5, mean ± SD), 179.58 ± 39.71 mm^3; with LL/2 cell line (Day 7, mean ± SD), 409.37 ± 72.98 mm^3; in the assay with LL/2 cell line (Day 9, mean ± SD), 749.00 ± 174.47 mm^3; with LL/2 cell line (Day 12, mean ± SD), 1066.72 ± 307.18 mm^3. The Tumor size turned out to be 1608.00 ± 572.50 mm^3 with LL/2 cell line (Day 14, mean ± SD); 2200.03 ± 850.12 mm^3 in the assay with LL/2 cell line (Day 16, mean ± SD); 3223.87 ± 1191.11 mm^3 in the assay with LL/2 cell line (Day 19, mean ± SD); 5431.08 ± 1673.60 mm^3 with LL/2 cell line (Day 21, mean ± SD). Also, the Tumor growth inhibition in the assay on LL/2 cell line (Day 2, mean ± SD) is on record as −7.12 ± 34.31%; with LL/2 cell line (Day 5, mean ± SD), 1.83 ± 27.19%; with LL/2 cell line (Day 7, mean ± SD), 12.67 ± 19.15%; in the assay with LL/2 cell line (Day 9, mean ± SD) it was 5.78 ± 24.08%; in the assay with LL/2 cell line (Day 12, mean ± SD), 6.89 ± 28.47%; with LL/2 cell line (Day 14, mean ± SD), 1.85 ± 36.39%. In addition, the Tumor growth inhibition with LL/2 cell line (Day 16, mean ± SD) is listed as 0.91 ± 39.37%; in the assay with LL/2 cell line (Day 19, mean ± SD) it was −5.99 ± 39.91%; in the assay with LL/2 cell line (Day 21, mean ± SD), −2.78 ± 32.04%. The “number of mice with tumor growth inhibition rate of 30% or more” value in the assay with CT26 cells is 6 mice; with EMT6 cells (EMT6, 10 animals per group), 6 mice. For the same substance, the “number of mice with tumor growth inhibition rate of 50% or more” value in the assay with CT26 cells stood at 2 mice; in the assay on EMT6 cells (EMT6, 10 animals per group), 5 mice. The “number of mice with tumor growth inhibition rate of 80% or more” value in the assay on CT26 cells came to 1 mice; in the assay on EMT6 cells (EMT6, 10 animals per group), 5 mice. The “tumor size level vs control” value with EMT6 cells (day 11, mGI-101 3 mg/kg i.v. QW, Paclitaxel 10 mg/kg i.p. 7 consecutive days) is given as “statistically significantly lower”. Moreover, the “mice with complete remission” value in the assay on EMT6 cells (day 13, 10 animals per group) is 2 mice. Further, the “tumor size vs control” value in the assay with EMT6 cells (day 13, mGI-101 3 mg/kg i.v. QW, Paclitaxel 10 mg/kg i.p. 7 consecutive days) was “statistically significantly lower”.
